Consider ten molecules from ChEMBL document CHEMBL4340579, “HPLC-DAD-Directed Isolation of Linearly Fused Prenylated Indole Alkaloids from a Soil-Derived Aspergillus versicolor” (J Nat Prod, 2019).

SMILES strings stand for the structures.

For test [1], the system named is NCM460. In words: Cytotoxicity in human NCM460 cells assessed as reduction in cell viability incubated for 3 days by MTT assay. The format is cell-based.
In test [2] the test system is HepG2. The test can be described thus: Cytotoxicity in human HepG2 cells assessed as reduction in cell viability incubated for 3 days by MTT assay. In kind it is functional, cell-based. (Tetrazolium assays rely on reduction of a dye to a coloured formazan, in cell work by metabolically active cells.)
Test [3] relates to MCF7. The test can be described thus: Cytotoxicity in human MCF7 cells assessed as reduction in cell viability incubated for 3 days by MTT assay. In kind it is functional, cell-based.
The subject of test [4] is HeLa. In words: Cytotoxicity in human HeLa cells assessed as reduction in cell viability incubated for 3 days by MTT assay. In kind it is functional, cell-based.
For test [5], the system named is A549. In words: Cytotoxicity in human A549 cells assessed as reduction in cell viability incubated for 3 days by MTT assay. The format is functional, cell-based.
[6] abbreviates: Homo sapiens, HeLa, 72 h, read-out: IC50.

Turning to `C=CC(C)(C)[C@]1(CC2(O)NC(=O)C3CCCN3C2=O)C(=O)Nc2cc3c(cc21)C=CC(C)(C)O3` (stereo not given in full), the IC50 entry is listed as “Non-Toxic” in test [1] (ncm460); “Not Active” in test [2] (hepg2); “Not Active” in test [3] (mcf7); “Not Active” in test [4] (hela); “Not Active” in test [5] (a549).
Consider `C=CC(C)(C)[C@@]12Nc3cc4c(cc3[C@]1(O)C[C@H]1C(=O)N3CCC[C@H]3C(=O)N12)C=CC(C)(C)O4`, for which the concentration for half-maximal inhibition (IC50) entry is “Non-Toxic” in test [1] (ncm460); “Not Active” in test [2] (hepg2); “Not Active” in test [3] (mcf7); “Not Active” in test [4] (hela); “Not Active” in test [5] (a549).
As to `C=CC(C)(C)[C@@]12Nc3cc4c(cc3[C@]1(O)C[C@]1(O)C(=O)N3CCC[C@H]3C(=O)N21)C=CC(C)(C)O4`, the IC50 entry in test [1] (ncm460) is given as “Non-Toxic”; in test [2] (hepg2) it was “Not Active”; in test [3] (mcf7) it was “Not Active”; in test [4] (hela) it was “Not Active”; in test [5] (a549), “Not Active”.
In the case of `C=CC(C)(C)c1[nH]c2cc3c(cc2c1C=O)C=CC(C)(C)O3`, the IC50 result in test [1] (ncm460) is “Non-Toxic”; in test [2] (hepg2), “Not Active”; in test [3] (mcf7), “Not Active”; in test [4] (setting [6]), 6400 nM; in test [5] (a549) it was “Not Active”.
Turning to `C=CC(C)(C)[C@@]12Nc3cc4c(cc3[C@]1(O)C[C@]1(NC(=O)[C@H]3CCCN3C1=O)O2)C=CC(C)(C)O4`, the 50% inhibitory concentration (IC50) result is “Non-Toxic” in test [1] (ncm460); “Not Active” in test [2] (hepg2); “Not Active” in test [3] (mcf7); 7300 nM in test [4] (setting [6]); “Not Active” in test [5] (a549).
For the molecule `C=CC(C)(C)[C@]1(CC2NC(=O)C3(O)CCCN3C2=O)C(=O)Nc2cc3c(cc21)C=CC(C)(C)O3` (stereo not given in full), the IC50 entry is “Non-Toxic” in test [1] (ncm460); “Not Active” in test [2] (hepg2); “Not Active” in test [3] (mcf7); “Not Active” in test [4] (hela); “Not Active” in test [5] (a549).
Take `C=CC(C)(C)[C@]1(C[C@@H]2NC(=O)[C@@H]3CCCN3C2=O)C(=O)Nc2cc3c(cc21)C=CC(C)(C)O3`: the IC50 entry in test [1] (ncm460) is given as “Non-Toxic”; in test [2] (hepg2) it was “Not Active”; in test [3] (mcf7), “Not Active”; in test [4] (hela), “Not Active”; in test [5] (a549), “Not Active”.
Consider `C=CC(C)(C)[C@]1(C[C@]2(OC)NC(=O)[C@@H]3CCCN3C2=O)C(=O)Nc2cc3c(cc21)C=CC(C)(C)O3`, for which the IC50 result is “Non-Toxic” in test [1] (ncm460); “Not Active” in test [2] (hepg2); “Not Active” in test [3] (mcf7); “Not Active” in test [4] (hela); “Not Active” in test [5] (a549).
As for `C=CC(C)(C)[C@@]1(C[C@@H]2NC(=O)[C@@H]3CCCN3C2=O)C(=O)Nc2cc3c(cc21)C=CC(C)(C)O3`, the IC50 entry in test [1] (ncm460) is “Non-Toxic”; in test [2] (hepg2) it was “Not Active”; in test [3] (mcf7) it was “Not Active”; in test [4] (hela), “Not Active”; in test [5] (a549) it was “Not Active”.
For the molecule `CC(=O)O[C@H]1C(=O)[C@@]2(C)[C@H]([C@H](OC(=O)c3ccccc3)[C@]3(O)C[C@H](OC(=O)[C@H](O)[C@@H](NC(=O)c4ccccc4)c4ccccc4)C(C)=C1C3(C)C)[C@]1(OC(C)=O)CO[C@@H]1C[C@@H]2O` [PACLITAXEL], the IC50 in test [1] (Homo sapiens, NCM460, 72 h, read-out: IC50) was less than 8 nM; in test [2] (Homo sapiens, HepG2, 72 h, read-out: IC50) it was less than 8 nM; in test [3] (Homo sapiens, MCF7, 72 h, read-out: IC50), less than 8 nM; in test [4] (setting [6]), less than 8 nM; in test [5] (Homo sapiens, A549, 72 h, read-out: IC50), less than 8 nM.

Usually IC50 stands for the point on the concentration scale where inhibition reaches its midpoint.
